Read-outs that look alike come from different tables or passages of the source. Each block holds one compound with its values, some of them ahead of it.
Key:
cholesterol = experiment: APCC in vivo screen: rats on high fat, high cholesterol diet (PCC), blood cholesterol analysis; set-up: species or system male Sprague-Dawley rats
From the text: In one in vivo screen designated APCC, male Sprague-Dawley rats (200 to 225 g) were randomly divided into treatment groups and dosed at 4 PM with either vehicle (CMC/Tween) or suspensions of compounds in vehicle. The normal chow diet was then replaced with a high fat, high cholesterol diet (designated PCC) containing 0.5% cholic acid. The rats consumed this diet ad libitum during the night and were sacrificed at 8 AM to obtain blood samples for cholesterol analysis using standard procedures. Statistical differences between mean cholesterol values for the same vehicle were determined using analysis of variance followed by Fisher's least significant test.

[1] = molecular target: acyl-CoA:cholesterol acyltransferase (ACAT); experiment: in vitro ACAT inhibition (LAI): radiolabeled cholesterol oleate formed from radiolabeled oleic acid in rat liver microsomes; format: biochemical; settings: read-out: LAI (IC50, concentration of test compound required to inhibit the activity of the enzyme by 50%)
From the text: The test assesses the ability of a test compound to inhibit the acylation of cholesterol by oleic acid by measuring the amount of radiolabeled cholesterol oleate formed from radiolabeled oleic acid in a tissue preparation containing rat liver microsomes.

SMILES: COP(=O)(NC(=O)Cc1c(C(C)C)cc(C(C)C)cc1C(C)C)Oc1c(C(C)C)cc(Cl)cc1C(C)C (stereo not drawn) [Cl iPr OCH3 O, Phosphoramidic acid, [[2,4,6-tris(1-methylethyl)phenyl]acetyl]-, 4-chloro-2,6-bis(1-methylethyl)phenyl methyl ester]
APCC (cholesterol; rat, in vivo, 10 mg/kg): -12
IC50 [1]: > 5000 nM

SMILES: CC(C)c1cc(C(C)C)c(CC(=O)NP(=O)(Oc2c(C(C)C)cccc2C(C)C)c2ccccc2)c(C(C)C)c1 (stereo not drawn) [H iPr Ph O, Phosphonamidic acid, P-phenyl-N-[[2,4,6-tris(1-methylethyl)phenyl]acetyl]-,2,6-bis(1-methylethyl)phenyl ester]
APCC (cholesterol; rat, in vivo, 10 mg/kg): -25
IC50 [1]: 2500 nM

IC50 ([1]; rat liver microsomes): 3600 nM
SMILES: CC(C)c1cc(C(C)C)c(CP(N)(=O)OCc2ccccc2)c(C(C)C)c1 (stereo not drawn) [Monobenzyl, 2,4,6-triisopropylbenzylphosphonamide]
APCC (cholesterol; dose 10 mg/kg, rats, single dose at 4 PM, PCC diet overnight, blood cholesterol at 8 AM): -4

SMILES: COP(=O)(Cc1c(C(C)C)cc(C(C)C)cc1C(C)C)NC(=O)Cc1c(C(C)C)cc(C(C)C)cc1C(C)C (stereo not drawn) [iPr iPr OCH3 CH2, Phosphonamidic acid, N-[[2,4,6-tris(1-methylethyl)phenyl]acetyl]-P-[[2,4,6-tris(1-methylethyl)phenyl]methyl]-, methyl ester]
IC50 [1]: 740 nM

SMILES: COP(=O)(NC(=O)Cc1c(C(C)C)cc(C(C)C)cc1C(C)C)Oc1c(C(C)C)cccc1C(C)C (stereo not drawn) [iPr H OCH3 O, [(2,4,6-Triisopropyl-phenyl)-acetyl]-phosphoramidic acid 2,6-diisopropyl-phenyl ester methyl ester]
APCC (cholesterol; rat, in vivo, 1 mg/kg): -18
IC50 [1]: 4800 nM

SMILES: COP(=O)(Cc1c(C(C)C)cc(C(C)C)cc1C(C)C)NC(=O)Cc1c(C(C)C)cccc1C(C)C (stereo not drawn) [iPr H OCH3 CH2, Phosphonamidic acid, N-[[2,6-bis(1-methyl-ethyl)phenyl)acetyl]-P-[[2,4,6-tris(1-methyl-ethyl)phenyl)methyl]-, methyl ester]
APCC (cholesterol; rat, in vivo, 3 mg/kg): -44
IC50 [1]: 290 nM

SMILES: COP(=O)(Cc1c(C(C)C)cccc1C(C)C)NC(=O)Cc1c(C(C)C)cc(C(C)C)cc1C(C)C (stereo not drawn) [H iPr OCH3 CH2, Phosphonamidic acid, P-[[2,6-bis(1-methylethyl)phenyl]methyl]-N-[[2,4,6-tris(1-methylethyl)phenyl]acetyl]-, methyl ester]
IC50 [1]: 1200 nM

Reference: patent US5807846A, “Phosphonamide ACAT inhibitors” (Warner-Lambert Company, priority 1997, dated 1998)
